Laboratory results from patent publication US20240208992A1, “MACROCYCLES AS CFTR MODULATORS” (Idorsia Pharmaceuticals Ltd, priority 2021, published 2024).

Molecular target: human F508del-CFTR (Homo sapiens, UniProt P13569, DEL508-508)
Assay: F508del-CFTR cell surface expression (corrector activity), DiscoveRx ß-galactosidase complementation chemiluminescence assay in recombinant U2OS cell line;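 note: U2OS cells co-expressing ProLink-tagged F508del-CFTR and a membrane-anchored enzyme acceptor, where more surface CFTR restores β-galactosidase activity measured by chemiluminescence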
Conditions: U2OS cells, 16h compound incubation; for EC50: EC50, F508del-CFTR cell surface expression, geomean of several measurements; for Emax: U2OS, in relation to the Emax of the corrector lumacaftor (=100%), arithmetic mean

Chain of human F508del-CFTR (P13569 with tags, fused parts or gaps DEL508-508): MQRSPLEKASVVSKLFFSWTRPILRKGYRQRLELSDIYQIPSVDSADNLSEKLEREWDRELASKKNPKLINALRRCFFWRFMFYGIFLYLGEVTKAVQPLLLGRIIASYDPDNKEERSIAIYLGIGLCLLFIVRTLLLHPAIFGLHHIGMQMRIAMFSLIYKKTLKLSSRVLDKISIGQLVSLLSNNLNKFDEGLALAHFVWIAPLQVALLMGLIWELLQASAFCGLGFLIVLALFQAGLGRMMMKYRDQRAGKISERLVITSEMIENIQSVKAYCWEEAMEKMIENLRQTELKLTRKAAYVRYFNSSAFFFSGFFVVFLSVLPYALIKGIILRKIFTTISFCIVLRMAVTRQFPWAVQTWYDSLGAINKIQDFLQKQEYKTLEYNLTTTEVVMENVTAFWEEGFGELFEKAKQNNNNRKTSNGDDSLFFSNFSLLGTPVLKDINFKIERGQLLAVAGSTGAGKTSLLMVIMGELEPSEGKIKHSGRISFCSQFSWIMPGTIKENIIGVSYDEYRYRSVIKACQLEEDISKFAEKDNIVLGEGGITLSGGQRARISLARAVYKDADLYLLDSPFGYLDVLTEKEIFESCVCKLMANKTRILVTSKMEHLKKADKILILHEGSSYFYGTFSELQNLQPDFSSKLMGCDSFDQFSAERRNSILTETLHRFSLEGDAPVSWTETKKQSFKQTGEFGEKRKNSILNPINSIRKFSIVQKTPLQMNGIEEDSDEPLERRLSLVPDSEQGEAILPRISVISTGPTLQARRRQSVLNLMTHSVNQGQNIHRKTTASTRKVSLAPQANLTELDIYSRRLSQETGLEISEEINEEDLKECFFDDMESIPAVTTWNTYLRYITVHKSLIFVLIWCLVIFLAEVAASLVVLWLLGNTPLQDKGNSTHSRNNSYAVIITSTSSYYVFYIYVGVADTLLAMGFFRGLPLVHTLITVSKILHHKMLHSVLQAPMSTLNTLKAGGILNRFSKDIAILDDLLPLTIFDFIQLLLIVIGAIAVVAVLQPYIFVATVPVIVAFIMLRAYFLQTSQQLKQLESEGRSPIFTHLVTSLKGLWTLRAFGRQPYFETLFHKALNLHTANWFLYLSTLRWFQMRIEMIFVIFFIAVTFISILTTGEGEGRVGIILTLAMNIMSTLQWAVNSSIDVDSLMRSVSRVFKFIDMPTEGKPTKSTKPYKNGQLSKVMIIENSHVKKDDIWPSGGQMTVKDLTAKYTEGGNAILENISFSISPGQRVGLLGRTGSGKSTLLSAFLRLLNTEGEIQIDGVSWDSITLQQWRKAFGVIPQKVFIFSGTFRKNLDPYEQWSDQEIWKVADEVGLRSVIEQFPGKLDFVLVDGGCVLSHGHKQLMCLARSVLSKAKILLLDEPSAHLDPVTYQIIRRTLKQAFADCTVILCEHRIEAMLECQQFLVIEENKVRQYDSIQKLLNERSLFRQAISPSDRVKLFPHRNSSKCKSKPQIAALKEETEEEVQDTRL

SMILES	EC50 [nM]	Emax [%]
CCOCC[C@@H]1C(=O)N[C@H](Cc2ccccc2)COc2ccc3ncc(F)cc3c2C(=O)N[C@H](C(=O)NCCc2cc(C)no2)CC(=O)N(C)[C@@H](CC(C)C)C(=O)N1C [Example 894, (3S,7S,10R,13R)-13-benzyl-10-(2-ethoxyethyl)-20-fluoro-7-isobutyl-6,9-dimethyl-N-(2-(3-methylisoxazol-5-yl)ethyl)-1,5,8,11-tetraoxo-1,2,3,4,5,6,7,8,9,10,11,12,13,14-tetradecahydro-[1]oxa[4,7,10,14]tetraazacycloheptadecino[16,17-f]quinoline-3-carboxamide]	339	431
CCOCC[C@@H]1C(=O)N[C@H](Cc2ccccc2)COc2ccc3ncc(F)cc3c2C(=O)N[C@H](C(=O)NCCc2cc(OC)no2)CC(=O)N(C)[C@@H](CC(C)C)C(=O)N1C [Example 895, (3S,7S,10R,13R)-13-benzyl-10-(2-ethoxyethyl)-20-fluoro-7-isobutyl-N-(2-(3-methoxyisoxazol-5-yl)ethyl)-6,9-dimethyl-1,5,8,11-tetraoxo-1,2,3,4,5,6,7,8,9,10,11,12,13,14-tetradecahydro-[1]oxa[4,7,10,14]tetraazacycloheptadecino[16,17-f]quinoline-3-carboxamide]	136	409
CCOCC[C@@H]1C(=O)N[C@H](Cc2ccccc2)COc2ccc3ncc(F)cc3c2C(=O)N[C@H](C(=O)NCCn2nnc(C3CC3)n2)CC(=O)N(C)[C@@H](CC(C)C)C(=O)N1C [Example 896, (3S,7S,10R,13R)-13-benzyl-N-(2-(5-cyclopropyl-2H-tetrazol-2-yl)ethyl)-10-(2-ethoxyethyl)-20-fluoro-7-isobutyl-6,9-dimethyl-1,5,8,11-tetraoxo-1,2,3,4,5,6,7,8,9,10,11,12,13,14-tetradecahydro-[1]oxa[4,7,10,14]tetraazacycloheptadecino[16,17-f]quinoline-3-carboxamide]	188	427
COc1cc(CCNC(=O)[C@@H]2CC(=O)N(C)[C@@H](CC(C)C)C(=O)N(C)[C@H](Cc3nc(C(F)(F)F)no3)C(=O)N[C@H](Cc3ccccc3)COc3cc(C)nc(OC)c3C(=O)N2)on1 [Example 897, (3R,6R,9S,13S)-3-benzyl-9-isobutyl-16-methoxy-N-(2-(3-methoxyisoxazol-5-yl)ethyl)-7,10,18-trimethyl-5,8,11,15-tetraoxo-6-((3-(trifluoromethyl)-1,2,4-oxadiazol-5-yl)methyl)-2,3,4,5,6,7,8,9,10,11,12,13,14,15-tetradecahydropyrido[3,4-p][1]oxa[4,7,10,14]tetraazacycloheptadecine-13-carboxamide]	32	454
COc1cc(CCNC(=O)[C@@H]2CC(=O)N(C)[C@@H](CC(C)C)C(=O)N(C)[C@H](Cc3nc(C(F)(F)F)no3)C(=O)N[C@H](Cc3ccccc3)COc3ccc4cnc(C)cc4c3C(=O)N2)on1 [Example 898, (3S,7S,10R,13R)-13-benzyl-7-isobutyl-N-(2-(3-methoxyisoxazol-5-yl)ethyl)-6,9,20-trimethyl-1,5,8,11-tetraoxo-10-((3-(trifluoromethyl)-1,2,4-oxadiazol-5-yl)methyl)-1,2,3,4,5,6,7,8,9,10,11,12,13,14-tetradecahydro-[1]oxa[4,7,10,14]tetraazacycloheptadecino[16,17-f]isoquinoline-3-carboxamide]	22	440
Cc1cc2c3c(ccc2cn1)OC[C@@H](Cc1ccccc1)NC(=O)C1(CC1)N(C)C(=O)[C@H](CC(C)C)N(C)C(=O)C[C@@H](C(=O)NCCc1noc(C2CC2)n1)NC3=O [Example 900, (3′S,7′S,13′R)-13′-benzyl-N-(2-(5-cyclopropyl-1,2,4-oxadiazol-3-yl)ethyl)-7′-isobutyl-6′,9′,20′-trimethyl-1′,5′,8′,11′-tetraoxo-2′,3′,4′,5′,6′,7′,8′,9′,11′,12′,13′,14′-dodecahydro-1′H-spiro[cyclopropane-1,10′-[1]oxa[4,7,10,14]tetraazacycloheptadecino[16,17-f]isoquinoline]-3′-carboxamide]	831	374

Continued, values first:

EC50 [nM]	Emax [%]	SMILES
736	390	COc1cc(CCNC(=O)[C@@H]2CC(=O)N(C)[C@@H](CC(C)C)C(=O)N(C)C3(CC3)C(=O)N[C@H](Cc3ccccc3)COc3ccc4cnc(C)cc4c3C(=O)N2)on1 [Example 901, (3′S,7′S,13′R)-13′-benzyl-7′-isobutyl-N-(2-(3-methoxyisoxazol-5-yl)ethyl)-6′,9′,20′-trimethyl-1′,5′,8′,11′-tetraoxo-2′,3′,4′,5′,6′,7′,8′,9′,11′,12′,13′,14′-dodecahydro-1′H-spiro[cyclopropane-1,10′-[1]oxa[4,7,10,14]tetraazacycloheptadecino[16,17-f]isoquinoline]-3′-carboxamide]
55	453	COc1nc(C)cc2c1C(=O)N[C@H](C(=O)NCCn1nnc(C3CC3)n1)CC(=O)N(C)[C@@H](CC(C)C)C(=O)N(C)[C@H](Cc1nc(C(F)(F)F)no1)C(=O)N[C@H](Cc1ccccc1)CO2 [Example 902, (3R,6R,9S,13S)-3-benzyl-N-(2-(5-cyclopropyl-2H-tetrazol-2-yl)ethyl)-9-isobutyl-16-methoxy-7,10,18-trimethyl-5,8,11,15-tetraoxo-6-((3-(trifluoromethyl)-1,2,4-oxadiazol-5-yl)methyl)-2,3,4,5,6,7,8,9,10,11,12,13,14,15-tetradecahydropyrido[3,4-p][1]oxa[4,7,10,14]tetraazacycloheptadecine-13-carboxamide]
51	414	COc1nc(C)cc2c1C(=O)N[C@H](C(=O)NCCn1nc3ccccc3n1)CC(=O)N(C)[C@@H](CC(C)C)C(=O)N(C)[C@H](Cc1nc(C(F)(F)F)no1)C(=O)N[C@H](Cc1ccccc1)CO2 [Example 903, (3R,6R,9S,13S)-N-(2-(2H-benzo[d][1,2,3]triazol-2-yl)ethyl)-3-benzyl-9-isobutyl-16-methoxy-7,10,18-trimethyl-5,8,11,15-tetraoxo-6-((3-(trifluoromethyl)-1,2,4-oxadiazol-5-yl)methyl)-2,3,4,5,6,7,8,9,10,11,12,13,14,15-tetradecahydropyrido[3,4-p][1]oxa[4,7,10,14]tetraazacycloheptadecine-13-carboxamide]
722	365	Cc1cc2c3c(ccc2cn1)OC[C@@H](Cc1ccccc1)NC(=O)C1(CC1)N(C)C(=O)[C@H](CC(C)C)N(C)C(=O)C[C@@H](C(=O)NCCn1nc2ccccc2n1)NC3=O [Example 904, (3′S,7′S,13′R)-N-(2-(2H-benzo[d][1,2,3]triazol-2-yl)ethyl)-13′-benzyl-7′-isobutyl-6′,9′,20′-trimethyl-1′,5′,8′,11′-tetraoxo-2′,3′,4′,5′,6′,7′,8′,9′,11′,12′,13′,14′-dodecahydro-1′H-spiro[cyclopropane-1,10′-[1]oxa[4,7,10,14]tetraazacycloheptadecino[16,17-f]isoquinoline]-3′-carboxamide]
311	415	Cc1cc2c3c(ccc2cn1)OC[C@@H](Cc1ccccc1)NC(=O)[C@@H](Cc1nc(-c2ccc(F)cn2)no1)N(C)C(=O)[C@H](CC(C)C)N(C)C(=O)C[C@@H](C(=O)NCCc1noc(C2CC2)n1)NC3=O [Example 905]
